Data reported in US20160264570A1, “METHOD OF BLOCKING TRANSMISSION OF MALARIAL PARASITE” (THE UNITED STATES OF AMERICA, AS REPRESENTED BY THE …, priority 2013, published 2016).
Like-named read-outs stand apart in the source and are kept apart here.

Tests used:
[1] = tested on: P. falciparum strain HB3 gametocytes; experiment: alamarBlue gametocyte viability assay, strain HB3; conditions: for fold more potent against HB3 compared to 3D7: gametocytes
[2] = tested on: P. falciparum strain Dd2 gametocytes; experiment: alamarBlue gametocyte viability assay, strain Dd2
[3] = tested on: P. falciparum strain 3D7 gametocytes; experiment: alamarBlue gametocyte viability assay, strain 3D7
[4] = tested on: HepG2 cells; experiment: Cytotoxicity in mammalian HepG2 cell line; conditions: for % Max response: HepG2; for Emax: HepG2, read-out: % Max response
[5] = tested on: Asexual parasites of P. falciparum strain 3D7; experiment: SYBR Green viability assay on asexual parasites; type: cell-based, Plasmodium falciparum; conditions: read-out: Activity against asexual parasites EC50
[6] = Plasmodium falciparum, HB3, read-out: HB3-IC50
[7] = Plasmodium falciparum, DD2, read-out: Dd2-IC50
[8] = Plasmodium falciparum, HB3, read-out: HB3-IC50, Table 3, 11 concentrations, 1:3 dilution, three times
[9] = Plasmodium falciparum, 3D7, read-out: 3D7-IC50
[10] = read-out: HB3-IC50, Table 3, 11 concentrations, 1:3 dilution, three times
[11] = Table 2, Inactive = no significant activity at highest tested concentration (46 μM)
[12] = Table 4, Inactive = no significant activity at highest tested concentration (46 μM)
[13] = read-out: 3D7-IC50, Table 3, 11 concentrations, 1:3 dilution, three times
[14] = read-out: Gametocyte IC50, mean of at least 3 independent experiments, P. falciparum 3D7 gametocyte
[15] = read-out: Dd2-IC50, Table 3, 11 concentrations, 1:3 dilution, three times
[16] = Homo sapiens, HepG2, read-out: IC50 (μM) in HepG2 cells
[17] = Plasmodium falciparum, HB3, read-out: IC50 against HB3 gametocytes
[18] = Plasmodium falciparum, DD2, read-out: IC50 against Dd2 gametocytes
[19] = read-out: IC50 (μM) in HepG2, Table 2, Inactive = no significant activity at highest tested concentration (46 μM)
[20] = read-out: IC50 (μM) in HepG2 cells, Table 4, Inactive = no significant activity at highest tested concentration (46 μM)
[21] = Homo sapiens, HepG2, read-out: IC50 (μM) in HepG2
[22] = Plasmodium falciparum, 3D7, read-out: Gametocyte IC50
[23] = read-out: Gametocytocidal activity EC50, Table 6
[24] = Plasmodium falciparum, 3D7, read-out: Gametocytocidal activity EC50, Table 7
[25] = Plasmodium falciparum, 3D7, Table 7

COc1cc(NC(C)CCCN)c2ncccc2c1 (centres unmarked) [Primaquine diphosphate]
IC50 [1, 6]: 679 nM | IC50 [2, 7]: 1080 nM

CNc1ccc2oc(C[C@H]3O[C@@]4(CC[C@H]3C)O[C@H]([C@H](C)C(=O)c3ccc[nH]3)[C@H](C)C[C@H]4C)nc2c1C(=O)O [Calcimycin]
IC50 [1, 8]: 5900 nM | IC50 [3, 9]: 2640 nM

CCN(CC)CCCC(C)Nc1ccnc2cc(Cl)ccc12 (centres unmarked) [Chloroquine diphosphate]
IC50 [1, 6]: 935 nM | IC50 [3, 9]: 200 nM | IC50 [2, 7]: 935 nM

C=CC1CN2CCC1CC2C(O)c1ccnc2ccc(OC)cc12.C=CC1CN2CCC1CC2C(O)c1ccnc2ccc(OC)cc12.O=S(=O)(O)O (centres unmarked) [Quinine hemisulfate]
IC50 [1, 10]: 235 nM | % Max response ([4]; Table 2): 2% | IC50 (μM) in HepG2 [4, 11]: Inactive | % Max response ([4]; Table 4): 2% | IC50 (μM) in HepG2 cells [4, 12]: Inactive | IC50 [3, 13]: 300 nM | IC50 [3, 14]: 345 nM | IC50 [2, 15]: 83 nM

C#Cc1cccc(Nc2ncnc3cc(OC)c(OCCCCCCC(=O)NO)cc23)c1 [CUDC-101]
IC50 [1, 6]: 152 nM | fold more potent against HB3 compared to 3D7 [1]: 5.5 fold | IC50 [4, 16]: 6.79 µM | % Max response ([4]; Table 4): −76% | IC50 [3, 9]: 800 nM

CCC(=O)N1CCN(c2ccc(-n3c(=O)ccc4cnc5ccc(-c6cnc7ccccc7c6)cc5c43)cc2C(F)(F)F)CC1 [Torin-1]
IC50 [1, 10]: 3720 nM | IC50 [3, 13]: 6620 nM | IC50 [2, 15]: 5260 nM

COc1ncc(-c2ccc3nccc(-c4ccnnc4)c3c2)cc1NS(=O)(=O)c1ccc(F)cc1F [GSK-458]
IC50 [1, 10]: 332 nM | % Max response ([4]; Table 2): 33% | IC50 (μM) in HepG2 [4, 11]: Inactive | % Max response ([4]; Table 4): 33% | IC50 (μM) in HepG2 cells [4, 12]: Inactive | IC50 [3, 13]: 935 nM | IC50 [3, 14]: 935 nM | IC50 [2, 15]: 1480 nM

S=C(SSC(=S)N1CCCCC1)N1CCCCC1 [Dicyclopentamethylenethiuram]
IC50 [1, 10]: 743 nM | IC50 [3, 13]: 200 nM | IC50 [2, 15]: 743 nM

Cc1[nH]c2ccccc2c1CCNCc1ccc(/C=C/C(=O)NO)cc1 [Panobinostat]
IC50 [1, 17]: 118 nM | fold more potent against HB3 compared to 3D7 [1]: 7.9 fold | IC50 [4, 16]: 0.372 µM | % Max response ([4]; Table 4): −74% | IC50 [3, 9]: 900 nM | IC50 [2, 18]: 148 nM | times more potent against Dd2 compared to 3D7 ([2]; gametocytes): 6.3 times

CCN(CC)Cc1nccn1-c1ccc([N+](=O)[O-])cc1C(=O)c1ccccc1Cl [Nizofenone]
IC50 [1, 8]: 14800 nM | IC50 [3, 9]: 23500 nM

CC1(C)OC2=C(C(=O)c3ccccc3C2=O)[C@H](NCc2ccccc2)[C@@H]1O [CAY10581]
IC50 [1, 10]: 662 nM | % Max response ([4]; Table 2): −86% | % Max response ([4]; Table 4): −86% | IC50 [4, 19]: 17.1 µM | IC50 [4, 20]: 17.1 µM | IC50 [3, 13]: 743 nM | IC50 [3, 14]: 743 nM | IC50 [2, 15]: 2350 nM

Zinc pyrithione
IC50 [1, 10]: 59 nM | % Max response ([4]; Table 2): −99% | % Max response ([4]; Table 4): −99% | IC50 [4, 19]: 2.15 µM | IC50 [4, 20]: 2.15 µM | IC50 [3, 14]: 93 nM | IC50 [2, 15]: 59 nM

CC(=O)OC[C@H]1O[C@@H]([S-])[C@H](OC(C)=O)[C@@H](OC(C)=O)[C@@H]1OC(C)=O.CCP(CC)CC.[Au+] [Auranofin]
IC50 [1, 10]: 1050 nM | % Max response ([4]; Table 2): −98% | % Max response ([4]; Table 4): −98% | IC50 [4, 19]: 9.35 µM | IC50 [4, 20]: 9.35 µM | IC50 [3, 13]: 935 nM | IC50 [3, 14]: 935 nM | IC50 [2, 15]: 1180 nM

Cl.Cl.Cl.Cl.Cl.Cl.N.N.N.N.N.N.N.N.N.N.N.N.N.N.[O-2].[O-2].[Ru+3].[Ru+3].[Ru+4] [Ruthenium red]
IC50 [1, 10]: 264 nM | IC50 [3, 13]: 935 nM | IC50 [2, 15]: 526 nM

Monensin sodium
IC50 [1, 10]: 264 nM | IC50 (μM) in HepG2 [4]: Inactive | IC50 (μM) in HepG2 cells [4]: Inactive | % Max response ([4]; Table 2): 40% | % Max response ([4]; Table 4): 40% | IC50 [3, 13]: 200 nM | IC50 [3, 14]: 254 nM | IC50 [2, 15]: 372 nM

CC[C@@H](C(=O)[C@@H](C)[C@@H](O)[C@H](C)[C@@H]1O[C@@H]([C@@H](CC)C(=O)O)CC[C@@H]1C)[C@H]1O[C@]2(C=C[C@@H](O)[C@]3(CC[C@@](C)([C@H]4CC[C@](O)(CC)[C@H](C)O4)O3)O2)[C@H](C)C[C@@H]1C [Salinomycin sodium]
IC50 [1, 8]: 372 nM | Emax ([4]; Homo sapiens): -69% | IC50 [4, 21]: 29.6 µM | IC50 [4, 16]: 29.6 µM | IC50 [3, 9]: 100 nM | IC50 [3, 22]: 194 nM

CC[C@@H](C(=O)[C@@H](C)[C@@H](O)[C@H](C)[C@@H]1O[C@@H]([C@@H](CC)C(=O)O)CC[C@@H]1C)[C@H]1O[C@]2(C=C[C@@H](O)[C@]3(CC[C@@](C)([C@H]4CC[C@](O)(CC)[C@H](C)O4)O3)O2)[C@H](C)C[C@@H]1C [Salinomycin monosodium]
IC50 [1, 10]: 469 nM | IC50 [3, 13]: 100 nM | IC50 [2, 15]: 296 nM

C/C=C1\NC(=O)[C@H]2CSSCC/C=C/[C@H](CC(=O)N[C@H](C(C)C)C(=O)N2)OC(=O)[C@H](C(C)C)NC1=O [Romidepsin]
IC50 [1, 8]: 148 nM | Emax ([4]; Homo sapiens): -98% | IC50 [4, 21]: 0.074 µM | IC50 [4, 16]: 0.074 µM | IC50 [3, 9]: 200 nM | IC50 [3, 22]: 637 nM

COc1cc(NC(C)CCCN)c2ncccc2c1 (centres unmarked) [Primaquine, primaquine]
IC50 [1, 17]: 680 nM | IC50 [4, 16]: 17.8 µM | IC50 [2, 18]: 1080 nM

Cc1cc(NC2CCCCC2)nc(-n2nc(C)cc2C)n1 [CyPPA]
IC50 [1, 10]: 743 nM | IC50 [3, 13]: 469 nM | IC50 [2, 15]: 590 nM

CCN(CC)C(=S)SSC(=S)N(CC)CC [Tetraethylthiuram disulfide]
IC50 [1, 6]: 148 nM | IC50 [2, 7]: 296 nM

Cn1c(=O)n(-c2cccc(C(F)(F)F)c2)c2c3cc(-c4cccc(C#N)c4)ccc3ncc21 [drawing 462]
EC50 ([3]; read-out: Gametocytocidal activity EC50, Table 7): 314 nM | EC50 ([5]; Table 7): 59 nM

O=C1NCCc2cc(-c3ccc4ncc5ccc(=O)n(-c6cccc(C(F)(F)F)c6)c5c4c3)ccc21
EC50 [3, 23]: 3170 nM | EC50 ([5]; Table 6): 1130 nM

O=c1[nH]c2cnc3ccc(-c4ccc5[nH]cnc5c4)cc3c2n1-c1cccc(C(F)(F)F)c1
EC50 [3, 24]: 543 nM | EC50 [5, 25]: 90 nM

O=c1[nH]c2cnc3ccc(-c4ccc(O)cc4)cc3c2n1-c1cccc(C(F)(F)F)c1
EC50 [3, 24]: 1420 nM | EC50 [5, 25]: 398 nM

COc1ccc(-c2ccc3ncc4ccc(=O)n(-c5cccc(C(F)(F)F)c5)c4c3c2)cc1
EC50 [3, 23]: 3240 nM | EC50 ([5]; Table 6): 2460 nM
